Data from patent US20250195521A1 (Revolution Medicines, Inc., priority 2020, published 2025).

The compounds below were run on NCI-H358 (K-Ras G12C) (assay: CellTiter-Glo cell viability assay, NCI-H358). Settings: Homo sapiens, NCI-H358, 120 h, 5-day treatment; read-out: H358 Cell Viability assay data (K-Ras G12C, IC50).
Assay type: cell-based, human
Method: Determination of Cell Viability in RAS Mutant Cancer Cell Lines Protocol: CellTiter-Glo® Cell Viability Assay
Note—The following protocol describes a procedure for monitoring cell viability of K-Ras mutant cancer cell lines in response to a compound of the invention. Other RAS isoforms may be employed, though the number of cells to be seeded will vary based on cell line used.
Test compounds (132.5 nL) were directly dispensed into the assay plates containing cells. […] On day 5, assay plates and their contents were equilibrated to room temperature for approximately 30 minutes. […] Luminescence was measured using the PerkinElmer Enspire. Data were normalized by the following: (Sample signal/Avg. DMSO)*100. The data were fit using a four-parameter logistic fit.

`CCn1c(-c2ccccc2CCOC)c2c3cc(ccc31)-c1cc(O)cc(c1)C[C@H](NC(=O)[C@H](C(C)C)N(C)C(=O)c1ccc(NC(=O)/C=C/CN(C)C)nc1)C(=O)N1CCC[C@H](N1)C(=O)OCC(C)(C)C2` [Compound A218] and `CCn1c(-c2ccccc2CCOC)c2c3cc(ccc31)-c1cc(O)cc(c1)C[C@H](NC(=O)[C@H](C(C)C)N(C)C(=O)c1ccc(NC(=O)/C=C/CN(C)C)cn1)C(=O)N1CCC[C@H](N1)C(=O)OCC(C)(C)C2` [Compound A224] cannot be ordered by IC50: > 10 µM for the first, > 10 µM for the second.

`C=CC(=O)N1CC[C@H](C(=O)Nc2ccccc2C(=O)N[C@H]2Cc3cc(O)cc(c3)-c3ccc4c(c3)c(c(-c3cnccc3COC)n4CC)CC(C)(C)COC(=O)[C@@H]3CCCN(N3)C2=O)C1` [Compound A229] and `C=CC(=O)N1CC[C@H](C(=O)N(C)[C@H](C(=O)N(C)[C@H]2Cc3cc(O)cc(c3)-c3ccc4c(c3)c(c(-c3cccnc3COC)n4CC)CC(C)(C)COC(=O)[C@@H]3CCCN(N3)C2=O)C(C)C)C1` [Compound A230] cannot be ordered by IC50: > 10 µM for the first, > 10 µM for the second.

`C=CC(=O)N1CC[C@H](C(=O)N(C)[C@H](C(=O)N[C@H]2Cc3cc(OC4O[C@H](CO)[C@@H](O)[C@H](O)[C@H]4O)cc(c3)-c3ccc4c(c3)c(c(-c3cccnc3COC)n4CC)CC(C)(C)COC(=O)[C@@H]3CCCN(N3)C2=O)C(C)C)C1` (stereo partly drawn) [Compound A234] and `C=CC(=O)N1CC[C@H](C(=O)N(C)[C@H](C(=O)N[C@H]2CN(C)C(=O)Cc3ccc4c(c3)c(c(-c3cccnc3COC)n4CC)CC(C)(C)COC(=O)[C@@H]3CCCN(N3)C2=O)C(C)C)C1` [Compound A239] cannot be ordered by IC50: > 10 µM for the first, > 10 µM for the second.

`C=CC(=O)N1CC[C@H](C(=O)N(C)[C@H](C(=O)N[C@H]2C[C@H]3CN(CCO3)c3ccc4c(c3)c(c(-c3cccnc3COC)n4CC)CC(C)(C)COC(=O)[C@@H]3CCCN(N3)C2=O)C(C)C)C1` [Compound A240] and `C=CC(=O)N1CC[C@H](C(=O)N(C)[C@H](C(=O)N[C@H]2CC3=NN=C(S3)c3ccc4c(c3)c(c(-c3cccnc3[C@H](C)OC)n4CC)CC(C)(C)COC(=O)[C@@H]3CCCN(N3)C2=O)C(C)C)C1` [Compound A248] cannot be ordered by IC50: > 10 µM for the first, > 10 µM for the second.

`C=CC(=O)N1CC[C@H](C(=O)N(C)[C@H](C(=O)N[C@H]2Cc3cc(O)cc(c3)-c3ccc4nc(-c5cccnc5[C@H](C)OC)n(c4c3)CC(C)(C)COC(=O)[C@@H]3CCCN(N3)C2=O)C(C)C)C1` [Compound A242] and `C=CC(=O)N1CC[C@H](C(=O)N(C)[C@H](C(=O)N[C@H]2Cc3cc(O)cc(c3)-c3ccc4nc(-c5cccnc5COC)c(n4c3)CC(C)(C)COC(=O)[C@@H]3CCCN(N3)C2=O)C(C)C)C1` [Compound A243] cannot be ordered by IC50: > 10 µM for the first, > 10 µM for the second.

`CCn1c(-c2cccnc2[C@H](C)OC)c2c3cc(ccc31)-c1cc(O)cc(c1)C[C@H](NC(=O)[C@H](C(C)C)N(C)C(=O)[C@H]1CCN(C(=O)C#C[C@@H]3CCCN3C)C1)C(=O)N1CCC[C@H](N1)C(=O)OCC(C)(C)C2` [Compound A247] and `C=CC(=O)Nc1ccc(C(=O)N(C)[C@H](C(=O)N[C@H]2Cc3cc(O)cc(c3)-c3ccc4c(c3)c(c(-c3cccnc3[C@H](C)OC)n4CC)CC(C)(C)COC(=O)[C@@H]3CCCN(N3)C2=O)C(C)C)cn1` [Compound A250] cannot be ordered by IC50: < 0.01 µM for the first, < 0.01 µM for the second.

First: CCn1c(-c2cccnc2[C@H](C)OC)c2c3cc(ccc31)-c1cc(O)cc(c1)C[C@H](NC(=O)C1CCCC1C(F)F)C(=O)N1CCC[C@H](N1)C(=O)OCC(C)(C)C2 (stereo partly drawn) [Compound A254]
Second: C=CC(=O)N1CC[C@H](C(=O)N(C)[C@H](C(=O)N[C@@H]2C(=O)N3CCC[C@H](N3)C(=O)OCC(C)(C)Cc3c(-c4cncnc4)n(CC)c4ccc(cc34)-c3cccc(c3)[C@H]2OC)C(C)C)C1 [Compound A273]
The IC50 of the first is lower: 0.1 to 1 µM for the first, > 10 µM for the second.

`C=CC(=O)N1CC[C@H](C(=O)N(C)[C@H](C(=O)N[C@@H]2C(=O)N3CCC[C@H](N3)C(=O)OCC(C)(C)Cc3c(-c4cncnc4)n(CC)c4ccc(cc34)-c3cccc(c3)[C@H]2O)C(C)C)C1` [Compound A272] was tested, and the IC50 was > 10 µM.
